# Results taken from patent publication US11795171B2, “Pyrrolotriazinones and imidazotriazinones as ubiquitin-specific protease 7 inhibitors” (Valo Health, Inc., priority 2014, dated 2023).
# Target: USP7 (Homo sapiens (Human), UniProt Q93009)
# Experiment: USP7 Assay B (Ubitquin-Rhodamine110 Assay)
# Format: biochemical
# Settings: Ub-Rh110 substrate 25 nM
# Procedure: Stock compound solutions were stored at −20° C. as 10 mM in DMSO. […] Prestamped assay plates were allowed to come to room temperature on the day of the assay. For the screen, 100 nL of 2 mM was pre-dispensed for a final screening concentration of 10 μM (DMSO(fc)=0.5%). […] Unless otherwise indicated, all follow-up assays were run on triplecate plates. […] Pre-stamped with compounds were either not preincubated or preincubated with USP7 between 30 to 120 minutes prior to the addition of 10 μL of 2×Ub-Rh110 to compound plates. Plates were incubated stacked for either 23 or 45 minutes at room temperature before fluorescence was read on the Envision (Excitation at 485 nm and Emission at 535 nm; Perkin Elmer) or on the PheraSTAR (Excitation at 485 nm and Emission at 535 nm; BMG Labtech).
# Data from USP7 Assays A and B were reported as percent inhibition (inh) compared with control wells based on the following equation: % inh=1−((FLU−AveLow)/(AveHigh−AveLow)) where FLU=measured Fluorescence (See Tables 2 and 3). AveLow=average Fluorescence of no enzyme control (n=16). AveHigh=average Fluorescence of DMSO control (n=16). IC50 values were determined by curve fitting of the standard 4 parameter logistic fitting algorithm included in the Activity Base software package: IDBS XE Designer Model205. Data is fitted using the Levenburg Marquardt algorithm.
# Sequence of USP7 (Q93009 208-1102): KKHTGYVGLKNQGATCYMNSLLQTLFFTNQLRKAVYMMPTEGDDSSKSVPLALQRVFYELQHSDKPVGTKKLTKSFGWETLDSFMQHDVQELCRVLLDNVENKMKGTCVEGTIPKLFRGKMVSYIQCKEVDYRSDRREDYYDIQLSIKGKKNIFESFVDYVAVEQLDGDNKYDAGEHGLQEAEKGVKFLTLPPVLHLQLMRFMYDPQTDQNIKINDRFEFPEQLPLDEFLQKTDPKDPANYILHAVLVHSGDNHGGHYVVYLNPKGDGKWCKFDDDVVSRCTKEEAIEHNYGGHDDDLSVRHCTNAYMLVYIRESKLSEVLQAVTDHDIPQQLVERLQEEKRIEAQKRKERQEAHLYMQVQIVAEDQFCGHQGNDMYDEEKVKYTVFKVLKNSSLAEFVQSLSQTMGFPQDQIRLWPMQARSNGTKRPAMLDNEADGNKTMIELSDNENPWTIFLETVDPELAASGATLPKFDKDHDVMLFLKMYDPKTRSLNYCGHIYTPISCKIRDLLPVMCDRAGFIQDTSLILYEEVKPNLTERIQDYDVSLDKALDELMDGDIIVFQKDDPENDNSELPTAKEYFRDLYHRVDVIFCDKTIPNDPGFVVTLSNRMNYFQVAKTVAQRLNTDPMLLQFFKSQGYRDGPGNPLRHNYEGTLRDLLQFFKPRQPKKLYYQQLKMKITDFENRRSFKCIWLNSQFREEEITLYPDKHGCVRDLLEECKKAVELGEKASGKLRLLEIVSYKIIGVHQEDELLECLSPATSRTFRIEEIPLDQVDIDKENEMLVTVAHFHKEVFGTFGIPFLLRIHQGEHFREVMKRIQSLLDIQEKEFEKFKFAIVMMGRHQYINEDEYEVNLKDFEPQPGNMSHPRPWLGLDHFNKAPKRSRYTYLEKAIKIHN
row,Compound,IC50 [µM]
1,"O=C(c1cccc(-c2ccsc2)c1)N1CCC(O)(Cn2cnn3cccc3c2=O)CC1 [Compound I-28, 3-((4-hydroxy-1-(3-(thiophen-3-yl)benzoyl)piperidin-4-yl)methyl)pyrrolo[2,1-f][1,2,4]triazin-4(3H)-one]",> 10
2,"CC(C)(C)C(Cc1ccccc1)C(=O)N1CCC(O)(Cn2cnn3cccc3c2=O)CC1 (stereo not shown) [Compound I-53, 3-((1-(2-benzyl-3,3-dimethylbutanoyl)-4-hydroxypiperidin-4-yl)methyl)pyrrolo[2,1-f][1,2,4]triazin-4(3H)-one]",1 to 10
3,"CC(CC(=O)N1CCC(O)(Cn2cnn3cc(Cl)cc3c2=O)CC1)c1ccccc1 (stereo not shown) [Compound I-49, 6-chloro-3-((4-hydroxy-1-(3-phenylbutanoyl)piperidin-4-yl)methyl)pyrrolo[2,1-f][1,2,4]triazin-4(3H)-one]",1 to 10
4,"O=C(c1cccc(-c2cccs2)c1)N1CCC(O)(Cn2cnn3cccc3c2=O)CC1 [Compound I-27, 3-((4-hydroxy-1-(3-(thiophen-2-yl)benzoyl)piperidin-4-yl)methyl)pyrrolo[2,1-f][1,2,4]triazin-4(3H)-one]",> 10
5,"CN(C)C(=O)c1ccc(-c2ccc(C(=O)N3CCC(O)(Cn4cnn5cccc5c4=O)CC3)cc2)cc1 [Compound I-38, 4′-(4-hydroxy-4-((4-oxopyrrolo[2,1-f][1,2,4]triazin-3(4H)-yl)methyl)piperidine-1-carbonyl)-N,N-dimethyl-[1,1′-biphenyl]-4-carboxamide]",1 to 10
6,"O=C(Nc1cc2c(=O)n(CC3(O)CCN(C(=O)C4CC4)CC3)cnn2c1)c1ccccc1OC(F)(F)F [Compound I-110, N-(3-((1-(cyclopropanecarbonyl)-4-hydroxypiperidin-4-yl)methyl)-4-oxo-3,4-dihydropyrrolo[2,1-f][1,2,4]triazin-6-yl)-2-(trifluoromethoxy)benzamide]",> 10
7,"Cc1cccc(NC(=O)Nc2cc3c(=O)n(CC4(O)CCN(C(=O)C5CC5)CC4)cnn3c2)c1 [Compound I-86, 1-(3-((1-(cyclopropanecarbonyl)-4-hydroxypiperidin-4-yl)methyl)-4-oxo-3,4-dihydropyrrolo[2,1-f][1,2,4]triazin-6-yl)-3-(m-tolyl)urea]",> 10
8,"O=C(COc1ccc(Cl)c(Cl)c1)Nc1cc2c(=O)n(CC3(O)CCN(C(=O)C4CC4)CC3)cnn2c1 [Compound I-105, N-(3-((1-(cyclopropanecarbonyl)-4-hydroxypiperidin-4-yl)methyl)-4-oxo-3,4-dihydropyrrolo[2,1-f][1,2,4]triazin-6-yl)-2-(3,4-dichlorophenoxy)acetamide]",> 10
9,"O=C(NC1CCCC1)c1cccc(-c2cccc(C(=O)N3CCC(O)(Cn4cnn5cccc5c4=O)CC3)c2)c1 [Compound I-26, N-cyclopentyl-3′-(4-hydroxy-4-((4-oxopyrrolo[2,1-f][1,2,4]triazin-3(4H)-yl)methyl)piperidine-1-carbonyl)-[1,1′-biphenyl]-3-carboxamide]",> 10
10,"Cc1cc(-c2cccc(C(=O)N3CCC(O)(Cn4cnn5cccc5c4=O)CC3)c2)ccc1F [Compound I-9, 3-((1-(4′-fluoro-3′-methyl-[1,1′-biphenyl]-3-carbonyl)-4-hydroxypiperidin-4-yl)methyl)pyrrolo[2,1-f][1,2,4]triazin-4(3H)-one]",> 10
11,"NC(=O)c1ccc(-c2cccc(C(=O)N3CCC(O)(Cn4cnn5cccc5c4=O)CC3)c2)cc1 [Compound I-16, 3′-(4-hydroxy-4-((4-oxopyrrolo[2,1-f][1,2,4]triazin-3(4H)-yl)methyl)piperidine-1-carbonyl)-[1,1′-biphenyl]-4-carboxamide]",1 to 10
12,"O=C(c1ccc(-c2ccc(C(=O)N3CCC(O)(Cn4cnn5cccc5c4=O)CC3)c(Cl)c2)cc1)N1CCCCC1 [Compound I-79, 3-((1-(3-chloro-4′-(piperidine-1-carbonyl)-[1,1′-biphenyl]-4-carbonyl)-4-hydroxypiperidin-4-yl)methyl)pyrrolo[2,1-f][1,2,4]triazin-4(3H)-one]",1 to 10
13,"Cc1ccc(NC(=O)Nc2cc3c(=O)n(CC4(O)CCN(C(=O)C5CC5)CC4)cnn3c2)cc1 [Compound I-89, 1-(3-((1-(cyclopropanecarbonyl)-4-hydroxypiperidin-4-yl)methyl)-4-oxo-3,4-dihydropyrrolo[2,1-f][1,2,4]triazin-6-yl)-3-(p-tolyl)urea]",> 10
14,"COc1ccc(OC)c(-c2ccc(C(=O)N3CCC(O)(Cn4cnn5cccc5c4=O)CC3)cc2)c1 [Compound I-40, 3-((1-(2′,5′-dimethoxy-[1,1′-biphenyl]-4-carbonyl)-4-hydroxypiperidin-4-yl)methyl)pyrrolo[2,1-f][1,2,4]triazin-4(3H)-one]",> 10
15,"3-((4-hydroxy-1-(3-phenylbutanoyl)piperidin-4-yl)methyl)-6-methylpyrrolo[2,1-f][1,2,4]triazin-4(3H)-one [Compound I-83]",1 to 10
16,"COc1cccc(-c2cccc(C(=O)N3CCC(O)(Cn4cnn5cccc5c4=O)CC3)c2)c1 [Compound I-10, 3-((4-hydroxy-1-(3′-methoxy-[1,1′-biphenyl]-3-carbonyl)piperidin-4-yl)methyl)pyrrolo[2,1-f][1,2,4]triazin-4(3H)-one]",> 10
17,"O=C(Cc1c(Cl)cccc1Cl)Nc1cc2c(=O)n(CC3(O)CCN(C(=O)C4CC4)CC3)cnn2c1 [Compound I-103, N-(3-((1-(cyclopropanecarbonyl)-4-hydroxypiperidin-4-yl)methyl)-4-oxo-3,4-dihydropyrrolo[2,1-f][1,2,4]triazin-6-yl)-2-(2,6-dichlorophenyl)acetamide]",> 10
18,"O=C(c1ccc(-c2cnc3ccccc3c2)cc1)N1CCC(O)(Cn2cnn3cccc3c2=O)CC1 [Compound I-42, 3-((4-hydroxy-1-(4-(quinolin-3-yl)benzoyl)piperidin-4-yl)methyl)pyrrolo[2,1-f][1,2,4]triazin-4(3H)-one]",1 to 10
19,"Cc1ccc(C)c(C(=O)Nc2cc3c(=O)n(CC4(O)CCN(C(=O)C5CC5)CC4)cnn3c2)c1 [Compound I-109, N-(3-((1-(cyclopropanecarbonyl)-4-hydroxypiperidin-4-yl)methyl)-4-oxo-3,4-dihydropyrrolo[2,1-f][1,2,4]triazin-6-yl)-2,5-dimethylbenzamide]",> 10
20,"Cc1ccc(C(=O)Nc2cc3c(=O)n(CC4(O)CCN(C(=O)C5CC5)CC4)cnn3c2)cc1C [Compound I-107, N-(3-((1-(cyclopropanecarbonyl)-4-hydroxypiperidin-4-yl)methyl)-4-oxo-3,4-dihydropyrrolo[2,1-f][1,2,4]triazin-6-yl)-3,4-dimethylbenzamide]",1 to 10
21,"CC(=O)Nc1cc2c(=O)n(CC3(O)CCN(C(=O)C[C@@H](C)c4ccccc4)CC3)cnn2c1 [Compound I-81, (R)-N-(3-((4-hydroxy-1-(3-phenylbutanoyl)piperidin-4-yl)methyl)-4-oxo-3,4-dihydropyrrolo[2,1-f][1,2,4]triazin-6-yl)acetamide]",0.2 to 1
22,"O=C(c1cccc(-c2cccc(F)c2)c1)N1CCC(O)(Cn2cnn3cccc3c2=O)CC1 [Compound I-30, 3-((1-(3′-fluoro-[1,1′-biphenyl]-3-carbonyl)-4-hydroxypiperidin-4-yl)methyl)pyrrolo[2,1-f][1,2,4]triazin-4(3H)-one]",1 to 10
23,"O=C(c1ccc(S(=O)(=O)c2ccccc2)cc1)N1CCC(O)(Cn2cnn3cccc3c2=O)CC1 [Compound I-61, 3-((4-hydroxy-1-(4-(phenylsulfonyl)benzoyl)piperidin-4-yl)methyl)pyrrolo[2,1-f][1,2,4]triazin-4(3H)-one]",1 to 10
24,"O=C(Nc1ccc(F)cc1)Nc1cc2c(=O)n(CC3(O)CCN(C(=O)C4CC4)CC3)cnn2c1 [Compound I-88, 1-(3-((1-(cyclopropanecarbonyl)-4-hydroxypiperidin-4-yl)methyl)-4-oxo-3,4-dihydropyrrolo[2,1-f][1,2,4]triazin-6-yl)-3-(4-fluorophenyl)urea]",> 10
25,"O=C(Nc1cc2c(=O)n(CC3(O)CCN(C(=O)C4CC4)CC3)cnn2c1)c1ccc(Cl)cc1Cl [Compound I-111, 2,4-dichloro-N-(3-((1-(cyclopropanecarbonyl)-4-hydroxypiperidin-4-yl)methyl)-4-oxo-3,4-dihydropyrrolo[2,1-f][1,2,4]triazin-6-yl)benzamide]",> 10
26,"CC(CC(=O)N1CCC(O)(Cn2cnn3cccc3c2=O)CC1)c1ccccc1 (stereo not shown) [Compound I-1, 3-((4-hydroxy-1-(3-phenylbutanoyl)piperidin-4-yl)methyl)pyrrolo[2,1-f][1,2,4]triazin-4(3H)-one]",0.2 to 1
27,"O=C(Nc1ccc2c(c1)CCC2)Nc1cc2c(=O)n(CC3(O)CCN(C(=O)C4CC4)CC3)cnn2c1 [Compound I-90, 1-(3-((1-(cyclopropanecarbonyl)-4-hydroxypiperidin-4-yl)methyl)-4-oxo-3,4-dihydropyrrolo[2,1-f][1,2,4]triazin-6-yl)-3-(2,3-dihydro-1H-inden-5-yl)urea]",> 10
28,"C=C(C)C(=O)Nc1ccccc1-c1ccc(C(=O)N2CCC(O)(Cn3cnn4cccc4c3=O)CC2)cc1 [Compound I-114, N-(4′-(4-hydroxy-4-((4-oxopyrrolo[2,1-f][1,2,4]triazin-3(4H)-yl)methyl)piperidine-1-carbonyl)-[1,1′-biphenyl]-2-yl)methacrylamide]",1 to 10
